# Tests used:
# [1] = tested on: VSV-G glycoprotein; assay type: cell-based, vesicular stomatitis Indiana virus (VSV)
# [2] = tested on: VSV-G; assay type: cell-based, vesicular stomatitis Indiana virus (VSV)
structure (smiles),measurement,setting,value
"CN(N=Cc1ccc(O)c(O)c1)c1nc(-c2ccccc2)cc(-c2ccccc2)n1 [MK-28, 4-((2-(4,6-diphenylpyrimidin-2-yl)-2-methylhydrazineylidene)methyl) benzene-1,2-diol]",Endo H-resistance of VSV-G relative to untreated control cells,[1],about half the resistance of untreated control cells
same,Endo H-resistance of VSV-G,[2],decreased considerably
